According to patent US20230040279A1, “COMPOSITIONS HAVING PESTICIDAL UTILITY AND PROCESSES RELATED THERETO” (CORTEVA AGRISCIENCE LLC, priority 2019, published 2023):

Key:
[1] = tested on: Sweetpotato Whitefly (Bemisia tabaci, BEMITA); test: Sweetpotato Whitefly (SPW) foliar spray bioassay on cotton seedlings; format: in vivo; conditions: for Mean LC50 PPM: cotton seedlings sprayed at crawler emergence, 2-3 instar nymphs counted 7-9 days after treatment, Abbott-corrected % control; for % (percent increase in the Mean LC50 required compared to F1): relative to F1
Procedure: (§1) F1, CE1, CE2, CE3, and CE4 (2 mg each) were each dissolved in 2 mL of acetone/methanol (1:1) solvent, forming stock solutions of 1000 ppm for each test molecule. The stock solutions were diluted 5× with 0.025% Tween® 20 in water to obtain test solutions at 200 ppm for each test molecule. Subsequent 4× dilutions, in water containing 0.025% Tween® 20 and 10% acetone/methanol (1:1), were used to generate the desired concentrations for dose responses. A minimum of 5 concentrations of each test molecule were used for each assay.
Test solutions of Formula One and the Comparative Examples, prepared as described above, were tested against SPW using the following procedure.
Cotton seedlings grown in 3-inch pots, pruned so that only one true leaf remained, were used as test substrate. Adult B. tabaci were allowed to colonize these plants and lay eggs for 24 hours after which all adults were removed from the plants using compressed air. Plants were monitored for egg development and, when crawler emergence was underway (>25% emergence based on visual examination using a microscope), the plants were sprayed using the test solutions and methods described above for green peach aphids (GPA). Treated plants were held in a holding room at approximately 25° C. and ambient relative humidity (RH) prior to grading. Evaluation was conducted by counting the number of developed 2-3 instar nymphs per plant under a microscope 7-9 days after treatment. Percent control was measured using Abbott's correction formula (W. S. Abbott, “A Method of Computing the Effectiveness of an Insecticide” J. Econ. Entomol. 18 (1925), pp.265-267) as follows:
(§2) Corrected % Control=100*(X−Y)/X
where X=No. of live nymphs on solvent check plants and Y=No. of live nymphs on treated plants.

[2] = tested on: Green Peach Aphid (Myzus persicae, MYZUPE); test: Green Peach Aphid (GPA) foliar spray bioassay on cabbage seedlings; format: in vivo; conditions: for Mean LC50 PPM: cabbage seedlings, live aphids counted three days after treatment, Abbott-corrected % control; for % (percent increase in the Mean LC50 required compared to F1): relative to F1
Procedure: as §1
Test solutions of Formula One and the Comparative Examples, prepared as described above, were tested against GPA using the following procedure.
Cabbage seedlings grown in 3-inch pots, with 2-3 small (3-5 cm) true leaves, were used as test substrate. The seedlings were infested with 20-50 GPA (wingless adult and nymph stages) one day prior to chemical application. Four pots with individual seedlings were used for each treatment. A hand—held aspirator—type sprayer was used for spraying a solution to both sides of […] leaves until runoff. Reference plants (solvent check) were sprayed with the diluent only (0.025% Tween® 20 and 10% acetone/methanol (1:1) in water). Treated plants were held in a holding room for three days at approximately 25° C. and ambient relative humidity (RH) prior to grading. Evaluation was conducted by counting the number of live aphids per plant under a microscope three days after treatment. Percent control was measured using Abbott's correction formula (W. S. Abbott, “A Method of Computing the Effectiveness of an Insecticide” J. Econ. Entomol. 18 (1925), pp.265-267) as follows:
as §2
where X=No. of live aphids on solvent check plants and Y=No. of live aphids on treated plants. Bioassay 2: Sweetpotato Whitefly (Bemisia tabaci, BEMITA) (“SPW”).

Row | SMILES | Mean LC50 PPM [1] [PPM] | % (percent increase in the Mean LC50 required compared to F1) [1] [%] | Mean LC50 PPM [2] [PPM] | % (percent increase in the Mean LC50 required compared to F1) [2] [%]
1 | CC(C(=O)N(C)c1cn(-c2cccnc2)nc1Cl)S(C)(=O)=O (stereo not drawn) [CE1, N-(3-chloro-1-(pyridin-3-yl)-1H-pyrazol-4-yl)-N-methyl-2-(methylsulfonyl)propanamide] | 5.61 | 15 | 0.29 | 314
2 | CN(C(=O)CS(C)(=O)=O)c1cn(-c2cccnc2)nc1Cl [CE2, N-(3-chloro-1-(pyridin-3-yl)-1H-pyrazol-4-yl)-N-methyl-2-(methylsulfonyl)acetamide] | 21.01 | 331 | 0.52 | 643
3 | CS(=O)(=O)CC(=O)Nc1cn(-c2cccnc2)nc1Cl [CE3, N-(3-chloro-1-(pyridin-3-yl)-1H-pyrazol-4-yl)-2-(methylsulfonyl)acetamide] | 25.35 | 421 | 0.05 | −29
4 | CC(C)(C(=O)Nc1cn(-c2cccnc2)nc1Cl)S(C)(=O)=O [CE4, N-(3-chloro-1-(pyridin-3-yl)-1H-pyrazol-4-yl)-2-methyl-2-(methylsulfonyl)propanamide] | 9.72 | 100 | 2.17 | 3000
5 | CC(C(=O)Nc1cn(-c2cccnc2)nc1Cl)S(C)(=O)=O (stereo not drawn) [Molecule F1, N-(3-chloro-1-(pyridin-3-yl)-1H-pyrazol-4-yl)-2-(methylsulfonyl)propanamide] | 4.87 |  | 0.07 | 
